target: T1, PD-1/PD-L1 (Homo sapiens, UniProt Q9NZQ7); assay: PD-1/PD-L1 Homogenous Time-Resolved Fluorescence (HTRF) binding assay; conditions: PD-L1-His 10 nM, PD-1-Ig 20 nM; value given as range class; read-out: Range or IC50
T1 construct: made in house; host or cells: HEK293T
Procedure, shortened: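 Read-out is time-resolved FRET between europium cryptate-labelled anti-Ig (1 nM final) and APC-labelled anti-His (20 nM final), both dispensed onto the binding mix. Assay buffer: dPBS containing 0.1% bovine serum albumin and 0.05% Tween-20.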

T1 sequence (Q9NZQ7 with tags, fused parts or gaps): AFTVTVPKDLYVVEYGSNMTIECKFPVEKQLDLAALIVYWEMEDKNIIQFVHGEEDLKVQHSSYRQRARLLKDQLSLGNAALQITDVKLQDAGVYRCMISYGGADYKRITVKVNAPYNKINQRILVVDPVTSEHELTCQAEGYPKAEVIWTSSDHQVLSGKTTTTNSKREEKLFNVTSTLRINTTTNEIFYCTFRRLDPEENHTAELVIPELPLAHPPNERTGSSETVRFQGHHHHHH

SMILES	IC50
Cc1c(COc2cc(OCc3cncc(C#N)c3)c(CN[C@@H](CO)C(=O)O)cc2Cl)cccc1-c1cc(OCCCN2CC[C@@H](O)C2)cc(OCCCN2CC[C@@H](O)C2)c1 [Example 3065, (S)-2-((4-((3′,5′-bis(3-((R)-3-hydroxypyrrolidin-1-yl)propoxy)-2-methyl-[1,1′-biphenyl]-3-yl)methoxy)-5-chloro-2-((5-cyanopyridin-3-yl)methoxy)benzyl)amino)-3-hydroxypropanoic Acid]	0.01 to 0.1 µM
Cc1c(COc2cc(OCc3cncc(C#N)c3)c(CN[C@@](C)(CO)C(=O)O)cc2Cl)cccc1-c1cccc(CN(C)CCN2CCS(=O)(=O)CC2)c1C [Example 4081, (S)-2-((5-chloro-2-((5-cyanopyridin-3-yl)methoxy)-4-((3′-(((2-(1,1-dioxidothiomorpholino)ethyl)(methyl)amino)methyl)-2,2′-dimethyl-[1,1′-biphenyl]-3-yl)methoxy)benzyl)amino)-3-hydroxy-2-methylpropanoic Acid]	0.01 to 0.1 µM
Cc1c(COc2cc(OCc3cncc(C#N)c3)c(CNC(CO)CO)cc2Cl)cccc1-c1cccc(OCCCN2CCC(O)(CO)CC2)c1Cl [Example 2063, 5-((4-chloro-5-((2′-chloro-3′-(3-(4-hydroxy-4-(hydroxymethyl)piperidin-1-yl)propoxy)-2-methyl-[1,1′-biphenyl]-3-yl)methoxy)-2-(((1,3-dihydroxypropan-2-yl)amino)methyl)phenoxy)methyl)nicotinonitrile]	0.1 to 2 µM
CNC(=O)c1cccc(-c2cccc(COc3cc(OCc4cc(F)cc(F)c4)c(CN4CCOC[C@H]4C(=O)O)cc3Cl)c2C)c1C [Example 4027, (S)-4-(5-chloro-2-((3,5-difluorobenzyl)oxy)-4-((2,2′-dimethyl-3′-(methylcarbamoyl)-[1,1′-biphenyl]-3-yl)methoxy)benzyl)morpholine-3-carboxylic Acid]	2.01 to 10 µM
Cc1c(COc2cc(OCc3cncc(C#N)c3)c(CO)cc2Cl)cccc1-c1cccc(OCCCN(C)C[C@H](O)CO)c1Cl [Example 2025, (S)-5-((4-chloro-5-((2′-chloro-3′-(3-((2,3-dihydroxypropyl)(methyl)amino)propoxy)-2-methyl-[1,1′-biphenyl]-3-yl)methoxy)-2-(hydroxymethyl)phenoxy)methyl)nicotinonitrile]	0.00021 to 0.01 µM
Cc1c(COc2cc(OCc3cncc(S(C)(=O)=O)c3)c(CN3CCCC[C@H]3C(=O)O)cc2Cl)cccc1-c1cccc(OCCCN2CC[C@@H](C(=O)O)C2)c1C [Example 1084, (S)-1-(4-((3′-(3-((R)-3-carboxypyrrolidin-1-yl)propoxy)-2,2′-dimethyl-[1,1′-biphenyl]-3-yl)methoxy)-5-chloro-2-((5-(methylsulfonyl)pyridin-3-yl)methoxy)benzyl)piperidine-2-carboxylic Acid]	0.00021 to 0.01 µM
CC(=O)NC1CCN(CCCOc2cccc(-c3cccc(COc4cc(OCc5cncc(C#N)c5)c(CN[C@](C)(CO)C(=O)O)cc4Cl)c3C)c2Cl)C1 (stereo partly drawn) [Example 2019, (2R)-2-((4-((3′-(3-(3-acetamidopyrrolidin-1-yl)propoxy)-2′-chloro-2-methyl-[1,1′-biphenyl]-3-yl)methoxy)-5-chloro-2-((5-cyanopyridin-3-yl)methoxy)benzyl)amino)-3-hydroxy-2-methylpropanoic Acid]	0.00021 to 0.01 µM
Cc1c(COc2cc(OCc3cncc(C#N)c3)c(CO)cc2Cl)cccc1-c1cccc(OCCCNC(CO)(CO)CO)c1Cl [Example 2041, 5-((4-chloro-5-((2′-chloro-3′-(3-((1,3-dihydroxy-2-(hydroxymethyl)propan-2-yl)amino)propoxy)-2-methyl-[1,1′-biphenyl]-3-yl)methoxy)-2-(hydroxymethyl)phenoxy)methyl)nicotinonitrile]	0.01 to 0.1 µM
CCN(Cc1cc(Cl)c(OCc2cccc(-c3cccc(OCCCN4CC[C@@H](O)C4)c3C)c2C)cc1OCc1cncc(C#N)c1)[C@@](C)(CO)C(=O)O [Example 4109, (S)-2-((5-chloro-2-((5-cyanopyridin-3-yl)methoxy)-4-((3′-(3-((R)-3-hydroxypyrrolidin-1-yl)propoxy)-2,2′-dimethyl-[1,1′-biphenyl]-3-yl)methoxy)benzyl)(ethyl)amino)-3-hydroxy-2-methylpropanoic Acid]	0.00021 to 0.01 µM

The next lines start with the values.

IC50	SMILES
0.00021 to 0.01 µM	Cc1c(OCCCN2CC[C@@H](O)C2)cccc1-c1cccc(COc2cc(OCC(=O)N(C)C)c(CNC(CO)CO)cc2Cl)c1Cl [Example 2317, (R)-2-(4-chloro-5-((2-chloro-3′-(3-(3-hydroxypyrrolidin-1-yl)propoxy)-2′-methyl-[1,1′-biphenyl]-3-yl)methoxy)-2-(((1,3-dihydroxypropan-2-yl)amino)methyl)phenoxy)-N,N-dimethylacetamide]
0.00021 to 0.01 µM	COc1cc(OCc2cccc(-c3cccc(OCCCN4CC[C@@H](O)C4)c3C)c2C)c(Cl)cc1CN[C@@H](CO)C(=O)O [Example 3035, (2S)-2-((5-chloro-4-((3′-(3-((R)-3-hydroxypyrrolidin-1-yl)propoxy)-2,2′-dimethyl-[1,1′-biphenyl]-3-yl)methoxy)-2-methoxybenzyl)amino)-3-hydroxypropanoic Acid]
0.00021 to 0.01 µM	Cc1c(COc2cc(OCc3cncc(C#N)c3)c(C=O)cc2Cl)cccc1-c1cccc(OCCCN2CCC(O)(C(=O)O)CC2)c1C [Example 2385, 1-(3-((3′-((2-chloro-5-((5-cyanopyridin-3-yl)methoxy)-4-formylphenoxy)methyl)-2,2′-dimethyl-[1,1′-biphenyl]-3-yl)oxy)propyl)-4-hydroxypiperidine-4-carboxylic Acid]
0.00021 to 0.01 µM	Cc1c(COc2cc(OCc3cncc(C#N)c3)c(CNC(C)(CO)CO)cc2Cl)cccc1-c1cccc(OCCCNC[C@H](O)CO)c1Cl [Example 2097, (S)-5-((4-chloro-5-((2′-chloro-3′-(3-((2,3-dihydroxypropyl)amino)propoxy)-2-methyl-[1,1′-biphenyl]-3-yl)methoxy)-2-(((1,3-dihydroxy-2-methylpropan-2-yl)amino)methyl)phenoxy)methyl)nicotinonitrile]
0.00021 to 0.01 µM	Cc1c(COc2cc(OCc3cncc(C#N)c3)c(CNC(C)(CO)CO)c(C)c2Cl)cccc1-c1cccc(OCCCN2CC[C@@H](O)C2)c1C [Example 4103, (R)-5-((4-chloro-2-(((1,3-dihydroxy-2-methylpropan-2-yl)amino)methyl)-5-((3′-(3-(3-hydroxypyrrolidin-1-yl)propoxy)-2,2′-dimethyl-[1,1′-biphenyl]-3-yl)methoxy)-3-methylphenoxy)methyl)nicotinonitrile]
0.00021 to 0.01 µM	Cc1c(COc2cc(OCc3cncc(C#N)c3)c(CO)cc2Cl)cccc1-c1cccc(OCCCN2CCCC(CO)C2)c1Cl (stereo not drawn) [Example 2044, 5-((4-chloro-5-((2′-chloro-3′-(3-(3-(hydroxymethyl)piperidin-1-yl)propoxy)-2-methyl-[1,1′-biphenyl]-3-yl)methoxy)-2-(hydroxymethyl)phenoxy)methyl)nicotinonitrile]
0.00021 to 0.01 µM	Cc1c(COc2cc(OCc3cncc(C#N)c3)c(CN[C@H](CO)C(=O)O)cc2Cl)cccc1-c1cccc(OCCCN2CCC(CO)(C(=O)O)C2)c1C (stereo partly drawn) [Example 1052, 1-(3-((3′-((4-((((R)-1-carboxy-2-hydroxyethyl)amino)methyl)-2-chloro-5-((5-cyanopyridin-3-yl)methoxy)phenoxy)methyl)-2,2′-dimethyl-[1,1′-biphenyl]-3-yl)oxy)propyl)-3-(hydroxymethyl)pyrrolidine-3-carboxylic Acid]
0.00021 to 0.01 µM	CC(=O)NC1CCN(CCCOc2cccc(-c3cccc(COc4cc(OCc5cncc(C#N)c5)c(CN[C@](C)(CO)C(=O)O)cc4Cl)c3C)c2Cl)CC1 [Example 1079, (R)-2-((4-((3′-(3-(4-acetamidopiperidin-1-yl)propoxy)-2′-chloro-2-methyl-[1,1′-biphenyl]-3-yl)methoxy)-5-chloro-2-((5-cyanopyridin-3-yl)methoxy)benzyl)amino)-3-hydroxy-2-methylpropanoic Acid]
0.00021 to 0.01 µM	Cc1c(COc2cc(OCc3cncc(C#N)c3)c(CNC(CO)CO)cc2Cl)cccc1-c1cccc(OCCCNCCc2cccnc2)c1Cl [Example 2037, 5-((4-chloro-5-((2′-chloro-2-methyl-3′-(3-((2-(pyridin-3-yl)ethyl)amino)propoxy)-[1,1′-biphenyl]-3-yl)methoxy)-2-(((1,3-dihydroxypropan-2-yl)amino)methyl)phenoxy)methyl)nicotinonitrile]
0.00021 to 0.01 µM	Cc1c(OCCCN2CCCCC2)cccc1-c1cccc(COc2cc(OCc3cncc(C#N)c3)c(CNC(C)(CO)CO)cc2Cl)c1Cl [Example 2308, 5-((4-chloro-5-((2-chloro-2′-methyl-3′-(3-(piperidin-1-yl)propoxy)-[1,1′-biphenyl]-3-yl)methoxy)-2-(((1,3-dihydroxy-2-methylpropan-2-yl)amino)methyl)phenoxy)methyl)nicotinonitrile]
0.00021 to 0.01 µM	COC(=O)[C@@H]1C[C@@H](O)CN1CCCOc1cccc(-c2cccc(COc3cc(OCc4cncc(S(C)(=O)=O)c4)c(CN[C@](C)(CO)C(=O)O)cc3Cl)c2C)c1Cl [Example 1068, (R)-2-((5-chloro-4-((2′-chloro-3′-(3-((2S,4R)-4-hydroxy-2-(methoxycarbonyl)pyrrolidin-1-yl)propoxy)-2-methyl-[1,1′-biphenyl]-3-yl)methoxy)-2-((5-(methylsulfonyl)pyridin-3-yl)methoxy)benzyl)amino)-3-hydroxy-2-methylpropanoic Acid]
0.00021 to 0.01 µM	CC(=O)N[C@H]1CCN(CCCOc2cccc(-c3cccc(COc4cc(OCc5cncc(C#N)c5)c(CN[C@](C)(CO)C(=O)O)cc4Cl)c3C)c2Cl)C1 [Example 2071, (R)-2-((4-((3′-(3-((S)-3-acetamidopyrrolidin-1-yl)propoxy)-2′-chloro-2-methyl-[1,1′-biphenyl]-3-yl)methoxy)-5-chloro-2-((5-cyanopyridin-3-yl)methoxy)benzyl)amino)-3-hydroxy-2-methylpropanoic Acid]
